Measurements as given in patent US12522606B2, “Modified pyrrolo- and pyrazolo-pyrimidines for prostate cancer therapy” (University of Washington, priority 2020, dated 2026).

Key:
[1] = test system: LNCaP95; assay: MTT proliferation assay, LNCaP95; type: cell-based; conditions: Homo sapiens, LNCaP-95; for EC50: Table 1, LNCaP95 (AR+ PCa), unit inferred; for inhibition at 10 µM: read-out: MTT % inhib @ 10 μM LNCaP95
Experimental: Anti-tumor activity was determined by screening a series of compounds against the castrate-resistant, androgen-receptor-positive, prostate cancer cell line LNCaP95. […] Inhibition of proliferation was determined based on the level of LNCaP95 cell growth suppression using an MTT assay (NAD(P)H-dependent cellular oxidoreductase enzymatic activities)) read at 72 and 96 hours after addition of the compounds. […] Each cell line was be tested in quadruplicate.

[2] = PK Oral (MMV); type: in vivo; conditions: dose 30.8 mg/kg
[3] = in vitro; conditions: human, CRL-8155 lymphoblastoid cell line
From the text: (§1) HepG2 is hepatoma liver tumor cell line. CRL8155 is lymphoblastoid cell line.

[4] = in vitro; conditions: human, HepG2 hepatoma cell line
From the text: as §1

[5] = test system: PC3; assay: MTT proliferation assay, PC3; conditions: Homo sapiens; for inhibition at 10 µM: PC-3, read-out: MTT % inhib @ 10 μM PC3; for EC50: read-out: EC50 PC3
[6] = Plasma protein binding, mouse; type: in vitro ADME
[7] = background statement; cited from earlier work
[8] = background statement; cited from earlier work; remark: listed apart in the source

Compound | EC50 [1] [µM] | AUC [2] [µmol·min/L] | Cmax ([2]; in vivo) [µM] | Tmax ([2]; in vivo) [h] | EC50 [5] [µM] | fraction unbound [6] | inhibition at 10 µM [1] [%] | CC50 [3] [µM] | CC50 [4] [µM] | inhibition at 10 µM [5] [%] | solubility [7] | metabolism [8]
COCCOc1ncnc2c1c(-c1ccc3cc(OC4CC4)ccc3c1)cn2CC(C)(C)O [Example 2, 1-(5-(6-cyclopropoxynaphthalen-2-yl)-4-(2-methoxyethoxy)-7H-pyrrolo[2,3-d]pyrimidin-7-yl)-2-methylpropan-2-ol] | 6 | 822 | 34.4 | 1 | > 20 |  | 32 | > 40 | > 40 | 12.8 |  | 
CC(C)(C)n1nc(Cc2cccc3ccccc23)c2c(N)ncnc21 [Example 1NM-PP1] |  |  |  |  |  |  |  |  |  |  | low solubility | quickly metabolized
CCOc1ccc2cc(-c3nn(CC(C)(C)O)c4ncnc(NC)c34)ccc2c1 [Example 14, 1-(3-(6-ethoxynaphthalen-2-yl)-4-(methylamino)-1H-pyrazolo[3,4-d]pyrimidin-1-yl)-2-methylpropan-2-ol] | 12 |  |  |  | > 20 | 0.0079 | 42.7 | > 80 | > 80 | -3.5 |  | 

More lines, in order of falling EC50 [1], values ahead:

EC50 [1] [µM] | AUC [2] [µmol·min/L] | Cmax ([2]; in vivo) [µM] | Tmax ([2]; in vivo) [h] | EC50 [5] [µM] | fraction unbound [6] | Compound | inhibition at 10 µM [1] [%] | CC50 [3] [µM] | CC50 [4] [µM] | inhibition at 10 µM [5] [%] | solubility [7] | metabolism [8]
5 |  |  |  | > 20 | 0.0064 | CNc1ncnc2c1c(-c1ccc(-c3ccc(Br)cc3)cc1)cn2CC(C)(C)OC [Example 33, 5-(4′-bromobiphenyl-4-yl)-7-(2-methoxy-2-methylpropyl)-N-methyl-7H-pyrrolo[2,3-d]pyrimidin-4-amine] | 30.7 |  |  | 11.4 |  | 
3 |  |  |  | > 20 | 0.0069 | CNc1ncnc2c1c(-c1ccc3cc(OC(C)C)ccc3c1)cn2CC(C)(C)OC [Example 32, 5-(6-isopropoxynaphthalen-2-yl)-7-(2-methoxy-2-methylpropyl)-N-methyl-7H-pyrrolo[2,3-d]pyrimidin-4-amine] | 5.1 |  |  | 14.6 |  | 
3 |  |  |  | > 20 | 0.0019 | CCOc1ccc2cc(-c3cn(CC(C)(C)O)c4ncnc(NC)c34)ccc2c1 [Example 11, 1-(5-(6-ethoxynaphthalen-2-yl)-4-(methylamino)-7H-pyrrolo[2,3-d]pyrimidin-7-yl)-2-methylpropan-2-ol] | 55.6 | > 80 | > 80 | 1.6 |  | 
